Source: patent US4598089A, “Leucine derivatives” (Hoffmann-La Roche Inc., priority 1983, dated 1986)

Columns and labels:
pig pancreas lipase = target: T1, pig pancreas lipase (Sus scrofa, UniProt P00591); experiment: inhibition of pancreas lipase (titrimetric, oleic acid liberated from triolein); type: biochemical
T1 sequence (P00591 1-450): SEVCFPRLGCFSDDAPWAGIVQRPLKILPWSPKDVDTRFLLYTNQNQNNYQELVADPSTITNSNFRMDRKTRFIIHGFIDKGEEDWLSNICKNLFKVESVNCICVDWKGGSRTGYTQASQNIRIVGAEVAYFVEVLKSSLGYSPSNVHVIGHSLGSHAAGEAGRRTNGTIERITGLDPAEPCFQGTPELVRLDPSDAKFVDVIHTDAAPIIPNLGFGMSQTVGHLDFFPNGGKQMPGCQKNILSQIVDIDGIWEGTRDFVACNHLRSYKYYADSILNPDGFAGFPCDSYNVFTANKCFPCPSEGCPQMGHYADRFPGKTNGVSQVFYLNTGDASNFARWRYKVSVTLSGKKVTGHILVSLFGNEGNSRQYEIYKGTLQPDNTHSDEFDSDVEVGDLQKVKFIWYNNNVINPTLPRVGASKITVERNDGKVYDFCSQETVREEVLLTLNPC
Source text: The IC50 is that concentration at which the lipase reactivity is inhibited to half of the maximum.

resorption of fats = experiment: inhibition of the resorption of fats, double-labelling experiment on mice (3H-triolein and 14C-oleic acid excreted with the feces); type: in vivo; details: 40 mg/kg lipstatin, given as preparation containing about 10% lipstatin, test meal
Protocol: For this purpose, there is administered to the test animals a test meal, which contains ^3 H-triolein and ^14 C-oleic acid, and a compound of formula I. By measuring the radioactivity there is then determined the amount of ^3 H-triolein and ^14 C-oleic acid (in % of the amount administered) excreted with the feces.
*The experiments were carried out with a preparation which contained abou
10% lipstatin. The dosage specified is the amount of lipstatin

[1] = acute toxicity, single oral administration to mice; details: mouse, in vivo
Protocol: An emulsion which contains 1 mM taurodeoxycholate, 9 mM taurodeoleate, 0.1 mM cholesterol, 1 mM egg lecithin, 15 mg/ml BSA (i.e., bovine serum albumine), 2 mM Tris-HCl, 100 mM sodium chloride, 1 mM calcium chloride and the substrate triolein is treated with the compound of formula I dissolved in ethanol or dimethyl sulphoxide (10% of the emulsion volume) and the reaction is started by the addition of 100 μl (175 U) of pig pancreas lipase. the pH is held at 8 during the reaction by the addition of sodium hydroxide. The IC50 is calculated from the consumption of sodium hydroxide determined during 10 minutes. The IC50 is that concentration at which the lipase reactivity is inhibited to half of the maximum. Table I hereinafter contains IC50 values determined for the compounds of formula I and data concerning the acute toxicity (LD50 after single oral administration to mice).

CCCCC/C=C\C/C=C\C[C@@H](C[C@@H]1OC(=O)[C@H]1CCCCCC)OC(=O)[C@H](CC(C)C)NC=O [Lipstatin, (2S,3S,5S,7Z,10Z)-5-[(S)-2-formamido-4-methyl-valeryloxy]-2-hexyl-3-hydroxy-7,10-hexadecadienoic acid lactone]
IC50 (pig pancreas lipase): 142 nM | Excretion of Triolein in % of the amount administered (resorption of fats; controls 3.5 ± 0.3): 56.8 ± 13 % of the amount administered | Excretion of Oleic acid in % of the amount administered (resorption of fats; controls 10.1 ± 0.6): 13.8 ± 5.6 % of the amount administered | LD50 [1]: > 4000 mg/kg
